Measured values reported in patent publication US7728012B2, “Carboxamide compounds and their use as calpain inhibitors” (Abbott GmbH & Co. KG, priority 2006, dated 2010).

Tests used:
Type in all cases: biochemical
[1] = target: T1, calpain-I isolated from human erythrocytes (Homo sapiens, UniProt P07384); assay: Calpain I kinetic fluorescence enzyme inhibition assay; conditions: apparent Ki from IC50 by Cheng-Prussoff; average of 2 to 4 dose-effect plots
T1 construct: calpain-I—isolated from human erythrocytes; purchased Calbiochem 208713; host or cells: human erythrocytes (tissue isolate)
T1 sequence (P07384 1-714): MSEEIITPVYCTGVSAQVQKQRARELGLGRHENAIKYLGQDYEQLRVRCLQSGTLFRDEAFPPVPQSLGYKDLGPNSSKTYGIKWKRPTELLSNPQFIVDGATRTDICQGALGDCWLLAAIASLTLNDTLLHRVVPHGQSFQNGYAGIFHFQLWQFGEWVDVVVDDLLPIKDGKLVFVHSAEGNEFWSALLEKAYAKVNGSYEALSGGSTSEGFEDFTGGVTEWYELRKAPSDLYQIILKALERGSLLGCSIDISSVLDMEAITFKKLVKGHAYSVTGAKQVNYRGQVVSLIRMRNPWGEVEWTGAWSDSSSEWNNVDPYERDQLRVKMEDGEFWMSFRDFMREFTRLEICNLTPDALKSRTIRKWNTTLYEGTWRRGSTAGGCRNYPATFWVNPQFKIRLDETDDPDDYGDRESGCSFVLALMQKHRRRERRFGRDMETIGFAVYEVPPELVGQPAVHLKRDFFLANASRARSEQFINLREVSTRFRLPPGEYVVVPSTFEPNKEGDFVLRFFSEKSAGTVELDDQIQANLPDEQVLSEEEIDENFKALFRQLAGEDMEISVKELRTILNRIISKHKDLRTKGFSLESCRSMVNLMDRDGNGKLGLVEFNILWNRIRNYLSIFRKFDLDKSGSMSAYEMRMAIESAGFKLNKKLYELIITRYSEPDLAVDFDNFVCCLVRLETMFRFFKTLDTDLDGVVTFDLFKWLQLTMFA
T1 sequence (P04632 1-268 partner): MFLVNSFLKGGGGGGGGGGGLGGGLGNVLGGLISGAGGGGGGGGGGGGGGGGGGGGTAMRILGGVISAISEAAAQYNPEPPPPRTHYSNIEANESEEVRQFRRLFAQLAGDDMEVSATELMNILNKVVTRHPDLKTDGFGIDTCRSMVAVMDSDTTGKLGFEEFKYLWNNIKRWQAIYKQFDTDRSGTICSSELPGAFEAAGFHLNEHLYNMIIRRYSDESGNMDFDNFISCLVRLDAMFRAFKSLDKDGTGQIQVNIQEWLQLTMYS
Description: (§1) The following solutions and buffers were employed: • HBS (for 40 ml): 800 μl M HEPES; 2.16 ml 100 mM KCl; 4.8 ml 1M NaCl; 3.59 ml 5% glucose; 60 μl μM MgSO4; 400 μl 100 mM Na pyruvate, 28.19 ml water; pH 7.2-7.5. • lysis buffer (for 20 ml): 400 μl M Tris pH 8.2; 2.74 ml 1M NaCl; 520 μl 0.5M EDTA; 2 ml 10% triton X-100; 0.8 ml (=1:25) CompletePlus (1 tablet/2 ml H2O); 200 μl 100 mM Pefabloc; 13.34 ml water, pH 8.2. • TBST (10×) (for 1 l): 100 mM Tris (12.1 g); 1.5M NaCl (87 g); 1% Tween 20 (10 g), adjusted to pH 8. I Enzyme Inhibition In Vitro: • Testing for blockade of the corresponding enzymic activities was carried out by means of kinetic fluorescence assays (excitation 390 nm, emission 460 nm). • Apparent Ki values were calculated from the experimentally determined IC50 values by the Cheng-Prussoff relation assuming a reversible competitive enzyme inhibition. The Km values of the substrates used under the assay conditions indicated above were: 90 μM (Z-Phe-Arg-AMC, cathepsin B), 10 μM (Z-Gly-Pro-Arg-AMC, cathepsin K), 2 μM (Z-Phe-Arg-AMC, cathepsin L), and 30 μM (Z-Val-Val-Arg-AMC, cathepsin S). • The indicated Ki values are averages of the inhibition constants calculated on the basis of 2 to 4 independent dose-effect plots.
(§2) The following assays were used: • 1. Calpain I: • 20 nM calpain-I—isolated from human erythrocytes (Calbiochem #208713), 100 μM Suc-Leu-Tyr-AMC (Bachem #1-1355) as substrate in buffer with 62 mM imidazole, 0.3 mM CaCl2, 0.10% CHAPS, 0.05% BSA, 1 mM DTT at pH 7.3 and room temperature. • 2. Cathepsin B: • 0.25 nM cathepsin B—isolated from human liver (Calbiochem #219362), 100 μM Z-Phe-Arg-AMC (Bachem #I-1160) as substrate 50 mM MES, 2 mM EDTA, 0.05% Brij 35, 2.5 mM L-cysteine, pH 6.0, room temperature. • 3. Cathepsin K: • 3 nM cathepsin K—activated from recombinant human procathepsin K from E. coli (Calbiochem #342001), 10 μM Z-Gly-Pro-Arg-AMC (Biomol #P-142) as substrate in 50 mM MES, 2 mM EDTA, 0.05% Brij 35, 2.5 mM L-cysteine, pH 6.0, room temperature. • 4. Cathepsin L: • 1 nM cathepsin L—isolated from human liver (Calbiochem #219402), 2 μM Z-Phe-Arg-AMC (Bachem #1-1160) as substrate in 50 mM MES, 2 mM EDTA, 0.05% Brij 35, 2.5 mM L-cysteine, pH 6.0, room temperature. • 5. Cathepsin S: • 0.5 nM recombinant human cathepsin S from E. coli (Calbiochem #219343), 20 μM Z-Val-Val-Arg-AMC (Bachem #1-1540) as substrate in 50 mM MES, 2 mM EDTA, 0.05% Brij 35, 2.5 mM L-cysteine, pH 6.0, room temperature. • The results of the in vitro determination are indicated in Table 1. The following abbreviations are used in Table 1: • The “Calpain activity” column, ++ stands for a calpain Ki (Ki(calpain)) of ≦40 nM and + means: 40 nM<Ki(Calpain)≦100 nM. • The “Sel. cat. B” column indicates the Ki(cathepsin B)/Ki(calpain) ratio. In this connection, ++ means a Ki(cathepsin B)/Ki(calpain) ratio of ≧30 and + means 10≦Ki(cathepsin B)/Ki(calpain)<30. • The “Sel. cat. K” column indicates the Ki(cathepsin K)/Ki(calpain) ratio. In this connection, ++ means a Ki(cathepsin K)/Ki(calpain) ratio of ≧30 and + means 10≦Ki(cathepsin K)/Ki(calpain)<30. • The “Sel. cat. L” column indicates the Ki(cathepsin L)/Ki(calpain) ratio. In this connection, ++ means a Ki(cathepsin L)/Ki(calpain) ratio of ≧50 and + means 30≦Ki(cathepsin L)/Ki(calpain)<50. • The “Sel. cat. S” column indicates the Ki(cathepsin S)/Ki(calpain) ratio. In this connection, ++ means a Ki(cathepsin S)/Ki(calpain) ratio of ≧100 and + means 50≦Ki(cathepsin S)/Ki(calpain)<100.

[2] = target: T2, recombinant human cathepsin S (Homo sapiens, UniProt P25774); assay: Cathepsin S kinetic fluorescence enzyme inhibition assay; conditions: selectivity ratio versus calpain I
T2 construct: purchased Calbiochem 219343; host or cells: E. coli
T2 sequence (P25774 115-331): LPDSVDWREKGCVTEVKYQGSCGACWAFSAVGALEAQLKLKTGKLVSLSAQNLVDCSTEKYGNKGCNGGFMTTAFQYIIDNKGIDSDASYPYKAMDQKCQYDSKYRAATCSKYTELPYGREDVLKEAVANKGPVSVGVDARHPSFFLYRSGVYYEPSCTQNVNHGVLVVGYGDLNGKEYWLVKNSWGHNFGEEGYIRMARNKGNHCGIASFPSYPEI
Description: as §1, §2

[3] = target: T3, cathepsin L isolated from human liver (Homo sapiens, UniProt P07711); assay: Cathepsin L kinetic fluorescence enzyme inhibition assay; conditions: selectivity ratio versus calpain I
T3 construct: cathepsin L—isolated from human liver; purchased Calbiochem 219402; host or cells: human liver (tissue isolate)
T3 sequence (P07711 114-333): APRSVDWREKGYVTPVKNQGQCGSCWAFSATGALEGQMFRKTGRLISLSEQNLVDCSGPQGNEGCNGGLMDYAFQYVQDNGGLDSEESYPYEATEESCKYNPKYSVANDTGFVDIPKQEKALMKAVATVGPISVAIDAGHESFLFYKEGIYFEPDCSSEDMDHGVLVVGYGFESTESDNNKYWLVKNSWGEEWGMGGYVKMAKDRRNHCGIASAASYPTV
Description: as §1, §2

Ki [1] [nM] | SMILES | Sel cat. S (Ki(cathepsin S)/Ki(calpain) ratio) [2] | Sel cat. L (Ki(cathepsin L)/Ki(calpain) ratio) [3]
≤ 40 | CCCCC(NC(=O)c1cccnc1-n1ccc(-c2cccc(N3CCOCC3)c2)n1)C(=O)C(N)=O (centres unmarked) [Example 59, N-{1-[Amino(oxo)acetyl]pentyl}-2-[3-(3-morpholin-4-ylphenyl)-1H-pyrazol-1-yl]nicotinamide] | + (50≦Ki(cathepsin S)/Ki(calpain)<100) | ++ (Ki(cathepsin L)/Ki(calpain) ratio of ≧50)
≤ 40 | NC(=O)C(=O)C(Cc1ccccc1)NC(=O)c1cccnc1-n1cnc(-c2ccc(Cl)cc2)c1 (centres unmarked) [Example 9, N-(3-Amino-1-benzyl-2,3-dioxopropyl)-2-[4-(4-chlorophenyl)-1H-imidazol-1-yl]nicotinamide] | ++ (Ki(cathepsin S)/Ki(calpain) ratio of ≧100) | + (30≦Ki(cathepsin L)/Ki(calpain)<50)
40 to 100 | NC(=O)C(=O)C(Cc1ccccc1)NC(=O)c1cccnc1-n1ccc(-c2ccc(Cl)cc2)n1 (centres unmarked) [Example 39, N-(3-Amino-1-benzyl-2,3-dioxopropyl)-2-[3-(4-chlorophenyl)-1H-pyrazol-1-yl]nicotinamide] | ++ (Ki(cathepsin S)/Ki(calpain) ratio of ≧100) | ++ (Ki(cathepsin L)/Ki(calpain) ratio of ≧50)
40 to 100 | COCc1cn(-c2ncccc2C(=O)NC(Cc2ccccc2)C(=O)C(N)=O)nc1-c1ccc(F)cc1 (centres unmarked) [Example 170, N-[3-Amino-2,3-dioxo-1-(phenylmethyl)propyl]-2-{3-(4-fluorophenyl)-4-[(methyloxy)methyl]-1H-pyrazol-1-yl}pyridine-3-carboxamide] |  | + (30≦Ki(cathepsin L)/Ki(calpain)<50)
≤ 40 | Cl.NC(=O)C(=O)C(Cc1ccccc1)NC(=O)c1cccnc1-n1cnc(-c2ccc(C(F)(F)F)cc2)c1 (centres unmarked) [Example 18, N-(3-Amino-1-benzyl-2,3-dioxopropyl)-2-{4-[4-(trifluoromethyl)phenyl]-1H-imidazol-1-yl}nicotinamide hydrochloride] | ++ (Ki(cathepsin S)/Ki(calpain) ratio of ≧100) | + (30≦Ki(cathepsin L)/Ki(calpain)<50)
≤ 40 | CCCCC(NC(=O)c1cccnc1-n1cnc(-c2ccc(C(F)(F)F)cc2)c1)C(=O)C(N)=O.Cl (centres unmarked) [Example 17, N-{1-[Amino(oxo)acetyl]pentyl}-2-{4-[4-(trifluoromethyl)phenyl]-1H-imidazol-1-yl}nicotinamide hydrochloride] | + (50≦Ki(cathepsin S)/Ki(calpain)<100) | ++ (Ki(cathepsin L)/Ki(calpain) ratio of ≧50)
40 to 100 | COc1ccc(-c2cn(-c3ncccc3C(=O)NC(Cc3ccccc3)C(=O)C(N)=O)cn2)cc1 (centres unmarked) [Example 13, N-(3-Amino-1-benzyl-2,3-dioxopropyl)-2-[4-(4-methoxyphenyl)-1H-imidazol-1-yl]nicotinamide] | + (50≦Ki(cathepsin S)/Ki(calpain)<100) | ++ (Ki(cathepsin L)/Ki(calpain) ratio of ≧50)
40 to 100 | CCCCC(NC(=O)c1cccnc1-n1ccc(-c2ccc(OC)cc2)n1)C(=O)C(N)=O (centres unmarked) [Example 49, N-{1-[Amino(oxo)acetyl]pentyl}-2-[3-(4-methoxyphenyl)-1H-pyrazol-1-yl]nicotinamide] | ++ (Ki(cathepsin S)/Ki(calpain) ratio of ≧100) | + (30≦Ki(cathepsin L)/Ki(calpain)<50)
≤ 40 | CCCCC(NC(=O)c1cc(Cl)cnc1-n1cnc(-c2ccccc2)c1)C(=O)C(N)=O.Cl (centres unmarked) [Example 24, N-{1-[Amino(oxo)acetyl]pentyl}-5-chloro-2-(4-phenyl-1H-imidazol-1-yl)nicotinamide hydrochloride] |  | + (30≦Ki(cathepsin L)/Ki(calpain)<50)
≤ 40 | CCCCC(NC(=O)c1cccnc1-n1cnc(-c2ccccc2)c1)C(=O)C(N)=O (centres unmarked) [Example 2, N-{1-[Amino(oxo)acetyl]pentyl}-2-(4-phenyl-1H-imidazol-1-yl)nicotinamide] |  | ++ (Ki(cathepsin L)/Ki(calpain) ratio of ≧50)
40 to 100 | NC(=O)C(=O)C(Cc1ccccc1)NC(=O)c1cccnc1-n1cc2ccccc2n1 (centres unmarked) [Example 78, N-(3-Amino-1-benzyl-2,3-dioxopropyl)-2-(2H-indazol-2-yl)nicotinamide] | + (50≦Ki(cathepsin S)/Ki(calpain)<100) | ++ (Ki(cathepsin L)/Ki(calpain) ratio of ≧50)
 | NC(=O)C(=O)C(Cc1ccccc1)NC(=O)c1cccnc1-n1cc(COc2ccccc2)c(-c2ccc(F)cc2)n1 (centres unmarked) [Example 179, N-[3-Amino-2,3-dioxo-1-(phenylmethyl)propyl]-2-{3-(4-fluorophenyl)-4-[(phenyloxy)methyl]-1H-pyrazol-1-yl}pyridine-3-carboxamide] | ++ (Ki(cathepsin S)/Ki(calpain) ratio of ≧100) | + (30≦Ki(cathepsin L)/Ki(calpain)<50)
